Source: patent US11497752B2, “Compounds and uses thereof” (Foghorn Therapeutics Inc., priority 2018, dated 2022)

Key:
BRM = BRM (Homo sapiens, UniProt P51531); experiment: ATPase catalytic activity of BRM (ADP-Glo in vitro biochemical assay)
BRG-1 = BRG-1 (Homo sapiens, UniProt P51532); experiment: ATPase catalytic activity of BRG-1 (ADP-Glo in vitro biochemical assay)
Chain of BRG-1 (P51532 whole entry): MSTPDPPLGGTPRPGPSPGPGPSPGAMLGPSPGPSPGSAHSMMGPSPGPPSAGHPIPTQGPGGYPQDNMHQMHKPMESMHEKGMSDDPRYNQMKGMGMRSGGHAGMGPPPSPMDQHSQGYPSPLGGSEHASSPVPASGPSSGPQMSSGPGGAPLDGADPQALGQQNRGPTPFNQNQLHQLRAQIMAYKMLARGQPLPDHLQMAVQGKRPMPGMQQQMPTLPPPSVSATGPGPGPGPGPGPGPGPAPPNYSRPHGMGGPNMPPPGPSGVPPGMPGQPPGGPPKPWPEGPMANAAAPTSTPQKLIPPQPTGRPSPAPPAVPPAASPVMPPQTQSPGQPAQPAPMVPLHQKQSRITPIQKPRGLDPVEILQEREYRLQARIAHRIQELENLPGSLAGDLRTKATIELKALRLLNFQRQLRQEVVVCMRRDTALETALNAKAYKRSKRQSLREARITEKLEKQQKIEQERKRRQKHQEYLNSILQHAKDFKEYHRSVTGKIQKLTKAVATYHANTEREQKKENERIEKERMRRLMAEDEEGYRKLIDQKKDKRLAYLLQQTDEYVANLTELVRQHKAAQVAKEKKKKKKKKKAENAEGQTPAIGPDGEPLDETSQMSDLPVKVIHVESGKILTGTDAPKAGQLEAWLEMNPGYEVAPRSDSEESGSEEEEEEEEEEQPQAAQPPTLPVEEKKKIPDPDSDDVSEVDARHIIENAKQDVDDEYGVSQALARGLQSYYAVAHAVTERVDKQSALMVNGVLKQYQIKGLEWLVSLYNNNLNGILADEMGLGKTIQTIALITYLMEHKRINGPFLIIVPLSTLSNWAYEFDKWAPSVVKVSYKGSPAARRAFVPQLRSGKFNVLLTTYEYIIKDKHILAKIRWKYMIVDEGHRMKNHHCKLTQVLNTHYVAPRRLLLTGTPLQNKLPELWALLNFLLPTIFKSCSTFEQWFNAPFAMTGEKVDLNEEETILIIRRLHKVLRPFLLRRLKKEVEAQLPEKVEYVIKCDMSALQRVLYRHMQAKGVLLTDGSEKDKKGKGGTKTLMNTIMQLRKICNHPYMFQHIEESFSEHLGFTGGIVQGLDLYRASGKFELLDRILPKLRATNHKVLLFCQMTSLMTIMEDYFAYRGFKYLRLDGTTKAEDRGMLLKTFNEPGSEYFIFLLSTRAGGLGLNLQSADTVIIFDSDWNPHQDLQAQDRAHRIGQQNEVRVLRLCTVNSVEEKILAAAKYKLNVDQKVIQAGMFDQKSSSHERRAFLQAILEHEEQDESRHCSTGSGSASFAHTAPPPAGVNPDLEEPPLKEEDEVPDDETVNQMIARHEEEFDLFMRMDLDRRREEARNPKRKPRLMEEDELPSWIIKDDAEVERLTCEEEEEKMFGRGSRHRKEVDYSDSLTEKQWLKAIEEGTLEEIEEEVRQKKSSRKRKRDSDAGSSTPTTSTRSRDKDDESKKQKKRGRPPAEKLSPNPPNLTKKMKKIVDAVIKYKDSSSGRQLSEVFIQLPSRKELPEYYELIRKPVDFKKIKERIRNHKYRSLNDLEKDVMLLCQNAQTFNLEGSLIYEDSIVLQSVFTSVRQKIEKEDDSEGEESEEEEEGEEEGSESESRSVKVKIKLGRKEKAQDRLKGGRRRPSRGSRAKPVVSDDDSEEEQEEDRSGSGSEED

Chain of BRM (P51531 whole entry): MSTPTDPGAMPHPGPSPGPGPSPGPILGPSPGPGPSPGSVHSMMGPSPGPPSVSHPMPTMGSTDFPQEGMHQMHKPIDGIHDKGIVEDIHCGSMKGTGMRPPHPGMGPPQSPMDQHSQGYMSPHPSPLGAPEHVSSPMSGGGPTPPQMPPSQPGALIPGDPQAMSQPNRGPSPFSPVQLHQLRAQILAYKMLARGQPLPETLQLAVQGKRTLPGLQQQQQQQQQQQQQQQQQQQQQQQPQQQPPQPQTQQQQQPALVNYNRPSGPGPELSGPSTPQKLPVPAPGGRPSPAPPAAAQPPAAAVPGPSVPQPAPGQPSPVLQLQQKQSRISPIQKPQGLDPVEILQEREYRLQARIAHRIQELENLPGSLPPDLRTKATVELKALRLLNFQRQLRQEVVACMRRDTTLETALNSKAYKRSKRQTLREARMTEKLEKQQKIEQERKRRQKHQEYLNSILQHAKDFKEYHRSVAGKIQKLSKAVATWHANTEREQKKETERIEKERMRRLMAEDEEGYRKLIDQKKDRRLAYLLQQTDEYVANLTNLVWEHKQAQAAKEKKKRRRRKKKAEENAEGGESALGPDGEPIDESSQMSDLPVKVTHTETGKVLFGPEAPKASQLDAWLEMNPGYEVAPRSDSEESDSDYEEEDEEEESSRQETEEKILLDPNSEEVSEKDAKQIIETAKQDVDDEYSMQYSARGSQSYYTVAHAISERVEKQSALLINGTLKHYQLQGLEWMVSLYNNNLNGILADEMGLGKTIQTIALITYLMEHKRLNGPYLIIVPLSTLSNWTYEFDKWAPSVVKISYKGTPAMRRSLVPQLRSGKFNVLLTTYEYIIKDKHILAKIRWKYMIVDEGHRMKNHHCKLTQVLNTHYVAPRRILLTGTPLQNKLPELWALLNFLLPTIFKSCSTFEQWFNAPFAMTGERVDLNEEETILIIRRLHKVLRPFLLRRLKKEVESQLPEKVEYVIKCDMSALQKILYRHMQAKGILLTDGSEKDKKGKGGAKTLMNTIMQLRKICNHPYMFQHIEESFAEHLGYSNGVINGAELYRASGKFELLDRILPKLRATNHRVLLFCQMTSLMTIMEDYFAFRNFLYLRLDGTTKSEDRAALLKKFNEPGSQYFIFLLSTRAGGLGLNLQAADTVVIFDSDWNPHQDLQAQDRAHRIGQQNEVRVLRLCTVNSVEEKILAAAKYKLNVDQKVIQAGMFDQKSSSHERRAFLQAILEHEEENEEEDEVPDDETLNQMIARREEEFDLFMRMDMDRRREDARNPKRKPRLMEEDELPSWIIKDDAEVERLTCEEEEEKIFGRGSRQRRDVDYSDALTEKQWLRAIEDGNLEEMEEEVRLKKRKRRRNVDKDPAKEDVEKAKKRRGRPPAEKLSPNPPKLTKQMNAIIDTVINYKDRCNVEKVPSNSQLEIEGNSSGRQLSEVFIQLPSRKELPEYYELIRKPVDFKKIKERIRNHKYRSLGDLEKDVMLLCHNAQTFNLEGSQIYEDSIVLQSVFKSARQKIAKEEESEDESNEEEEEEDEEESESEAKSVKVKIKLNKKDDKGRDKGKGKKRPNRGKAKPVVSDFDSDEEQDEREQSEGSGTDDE

| SMILES | IC50 (BRM) [nM] | IC50 (BRG-1) [nM] | BRM Max % Inhibition (BRM; Table 5) [%] | BRG1 Max % Inhibition (BRG-1; Table 5) [%] | BRM Max % Inhibition (BRM; Table 6) [%] | BRG1 Max % Inhibition (BRG-1; Table 6) [%] |
| --- | --- | --- | --- | --- | --- | --- |
| CSCC[C@H](NC(=O)c1ccc(C(F)(F)F)cc1)C(=O)Nc1nc(-c2ccccc2)cs1 [Compound 68] | > 10000 | > 10000 |  |  |  |  |
| CSCC[C@H](NC(=O)c1ccccc1O)C(=O)Nc1nc(-c2ccccc2)cs1 [Compound 69, 2-hydroxy-N-[(1S)-3-methylsulfanyl-1-[(4-phenylthiazol-2-yl)carbamoyl]propyl]benzamide] | > 10000 | > 10000 | >60 | >60 |  |  |
| CSCC[C@H](NC(=O)c1cc2ccccc2s1)C(=O)Nc1nc(-c2ccccc2)cs1 [Compound 71, (S)—N-(4-(methylthio)-1-oxo-1-((4-phenylthiazol-2-yl)amino)butan-2-yl)benzo[b]thiophene-2-carboxamide] | 1000 to 10000 | > 10000 | >60 | >50 |  |  |
| CNC(=O)c1ccc(C(=O)N[C@@H](CCSC)C(=O)Nc2nc(-c3ccccc3)cs2)cc1 [Compound 72, N4-methyl-N1-[(1S)-3-methylsulfanyl-1-[(4-phenylthiazol-2-yl)carbamoyl]propyl]terephthalamide] | > 10000 | > 10000 | >60 | >50 |  |  |
| CSCC[C@H](NC(=O)c1cccc(C(C)(C)C)c1)C(=O)Nc1nc(-c2ccccc2)cs1 [Compound 73, (S)-3-(tert-butyl)-N-(4-(methylthio)-1-oxo-1-((4-phenylthiazol-2-yl)amino)butan-2-yl)benzamide] | < 1000 | 1000 to 10000 | >50 | >30 |  |  |
| CSCC[C@H](NC(=O)c1ccc(CNC(C)=O)cc1)C(=O)Nc1nc(-c2ccccc2)cs1 [Compound 74, 4-(acetamidomethyl)-N-[3-methylsulfanyl-1-[(4-phenylthiazol-2-yl)carbamoyl]propyl]benzamide] | > 10000 | > 10000 | >50 | >30 |  |  |
| CSCC[C@H](NC(=O)c1cccc(CN)c1)C(=O)Nc1nc(-c2ccccc2)cs1 [Compound 75] | > 10000 | > 10000 | >50 | >60 |  |  |
| CSCC[C@H](NC(=O)c1cccc(C(F)(F)F)c1)C(=O)Nc1nc(-c2ccccc2)cs1 [Compound 77, N-[(1S)-3-methylsulfanyl-1-[(4-phenylthiazol-2-yl)carbamoyl]propyl]-3-(trifluoromethyl)benzamide] | > 10000 | > 10000 | >30 | >30 |  |  |
| CN(C)C(=O)c1cccc(C(=O)NCC(=O)Nc2nc(-c3ccccc3)cs2)c1 [Compound 78] | > 10000 | > 10000 |  |  |  |  |
| O=C(CNC(=O)c1cc2c(s1)CCC2)Nc1nc(-c2ccccc2)cs1 [Compound 79, N-[2-oxo-2-[(4-phenylthiazol-2-yl)amino]ethyl]-5,6-dihydro-4H-cyclopenta[b]thiophene-2-carboxamide] | < 1000 | 1000 to 10000 | >30 | >30 |  |  |
| CNc1ccc(C(=O)N[C@@H](CCSC)C(=O)Nc2nc(-c3ccccc3)cs2)cc1 [Compound 81, 4-(methylamino)-N-[(1S)-3-methylsulfanyl-1-[(4-phenylthiazol-2-yl)carbamoyl]propyl]benzamide] | < 1000 | < 1000 | >95 | >95 |  |  |
| CSCC[C@H](NC(=O)c1cccc(CO)c1)C(=O)Nc1nc(-c2ccccc2)cs1 [Compound 84, 3-(hydroxymethyl)-N-[(1S)-3-methylsulfanyl-1-[(4-phenylthiazol-2-yl)carbamoyl]propyl]benzamide] | > 10000 | > 10000 | >80 | >80 |  |  |
| CSCC[C@H](NC(=O)c1ccc(CO)cc1)C(=O)Nc1nc(-c2ccccc2)cs1 [Compound 85, 4-(hydroxymethyl)-N-[(1S)-3-methylsulfanyl-1-[(4-phenylthiazol-2-yl)carbamoyl]propyl]benzamide] | 1000 to 10000 | 1000 to 10000 | >95 | >90 |  |  |
| CSCC[C@H](NC(=O)c1ccc(S(C)(=O)=O)cc1)C(=O)Nc1nc(-c2ccccc2)cs1 [Compound 86] | > 10000 | > 10000 | >70 | >70 |  |  |
| CS(=O)(=O)c1cccc(C(=O)NCC(=O)Nc2nc(-c3ccc4cc[nH]c(=O)c4c3)cs2)c1 [Compound 88, 3-(methylsulfonyl)-N-(2-oxo-2-((4-(1-oxo-1,2-dihydroisoquinolin-7-yl)thiazol-2-yl)amino)ethyl)benzamide] | 100 to 1000 | 1000 to 10000 |  |  | >95 | >95 |
| CS(=O)(=O)c1cccc(C(=O)NCC(=O)Nc2nc(-c3cccc(-c4ccncc4)c3)cs2)c1 [Compound 89, 3-(methylsulfonyl)-N-(2-oxo-2-((4-(3-(pyridin-4-yl)phenyl)thiazol-2-yl)amino)ethyl)benzamide] | < 100 | 100 to 1000 |  |  | >80 | >80 |
| CS(=O)(=O)c1cccc(C(=O)NCC(=O)Nc2nc(-c3cccc(-c4ccncn4)c3)cs2)c1 [Compound 90, 3-(methylsulfonyl)-N-(2-oxo-2-((4-(3-(pyrimidin-4-yl)phenyl)thiazol-2-yl)amino)ethyl)benzamide] | < 100 | < 100 |  |  | >70 | >50 |
| CS(=O)(=O)c1cccc(C(=O)NCC(=O)Nc2nc(-c3cccc(C4CCOCC4)c3)cs2)c1 [Compound 91, 3-(methylsulfonyl)-N-(2-oxo-2-((4-(3-(tetrahydro-2H-pyran-4-yl)phenyl)thiazol-2-yl)amino)ethyl)benzamide] | 100 to 1000 | 1000 to 10000 |  |  | >95 | >90 |
| CS(=O)(=O)c1cccc(C(=O)NCC(=O)Nc2nc(-c3ccc4c(c3)OCCO4)cs2)c1 [Compound 92, N-(2-((4-(2,3-dihydrobenzo[b][1,4]dioxin-6-yl)thiazol-2-yl)amino)-2-oxoethyl)-3-(methylsulfonyl)benzamide] | 100 to 1000 | 100 to 1000 |  |  | >90 | >80 |
| Cn1cnc2ccc(-c3csc(NC(=O)CNC(=O)c4cccc(S(C)(=O)=O)c4)n3)cc2c1=O [Compound 93, N-(2-((4-(3-methyl-4-oxo-3,4-dihydroquinazolin-6-yl)thiazol-2-yl)amino)-2-oxoethyl)-3-(methylsulfonyl)benzamide] | 100 to 1000 | 100 to 1000 |  |  | >90 | >90 |
| CS(=O)(=O)NCc1cccc(-c2csc(NC(=O)CNC(=O)c3cccc(S(C)(=O)=O)c3)n2)c1 [Compound 94, N-(2-((4-(3-(methylsulfonamidomethyl)phenyl)thiazol-2-yl)amino)-2-oxoethyl)-3-(methylsulfonyl)benzamide] | 100 to 1000 | 1000 to 10000 |  |  | >95 | >90 |
| O=C(CNC(=O)c1ccc2c(c1)CCN2)Nc1nc(-c2cccc(-c3ccncc3)c2)cs1 [Compound 95, N-(2-oxo-2-((4-(3-(pyridin-4-yl)phenyl)thiazol-2-yl)amino)ethyl)indoline-5-carboxamide] | < 100 | < 100 |  |  | >95 | >95 |
| O=C(CNC(=O)c1ccc2[nH]ncc2c1)Nc1nc(-c2cccc(-c3ccncc3)c2)cs1 [Compound 96, N-(2-oxo-2-((4-(3-(pyridin-4-yl)phenyl)thiazol-2-yl)amino)ethyl)-1H-indazole-5-carboxamide] | 100 to 1000 | 1000 to 10000 |  |  | >70 | >70 |
| CSCC[C@H](NC(=O)c1ccccc1)C(=O)Nc1nc(-c2cccc(-c3ccncc3)c2)cs1 [Compound 97, (S)-N-(4-(methylthio)-1-oxo-1-((4-(3-(pyridin-4-yl)phenyl)thiazol-2-yl)amino)butan-2-yl)benzamide] | 100 to 1000 | 100 to 1000 |  |  | >70 | >70 |
| CS(=O)(=O)c1cccc(C(=O)NCC(=O)Nc2nc(-c3cccc(-c4nccs4)c3)cs2)c1 [Compound 98, 3-(methylsulfonyl)-N-(2-oxo-2-((4-(3-(thiazol-2-yl)phenyl)thiazol-2-yl)amino)ethyl)benzamide] | 100 to 1000 | 100 to 1000 |  |  | >90 | >70 |
| O=C(CNC(=O)c1ccc2c(c1)CCCN2)Nc1nc(-c2cccc(-c3ccncc3)c2)cs1 [Compound 99, N-(2-oxo-2-((4-(3-(pyridin-4-yl)phenyl)thiazol-2-yl)amino)ethyl)-1,2,3,4-tetrahydroquinoline-6-carboxamide] | < 100 | < 100 |  |  | >90 | >95 |
| NCc1ccc(C(=O)NCC(=O)Nc2nc(-c3cccc(-c4ccncc4)c3)cs2)cc1 [Compound 100, 4-(aminomethyl)-N-(2-oxo-2-((4-(3-(pyridin-4-yl)phenyl)thiazol-2-yl)amino)ethyl)benzamide] | 100 to 1000 | 1000 to 10000 |  |  | >80 | >80 |
| O=C(CNC(=O)c1ccc2cncn2c1)Nc1nc(-c2cccc(-c3ccncc3)c2)cs1 [Compound 101, N-(2-oxo-2-((4-(3-(pyridin-4-yl)phenyl)thiazol-2-yl)amino)ethyl)imidazo[1,5-a]pyridine-6-carboxamide] | 100 to 1000 | 100 to 1000 |  |  | >95 | >95 |
